Assay results: patent publication US10780090B2, “Heteroaryl compounds useful as inhibitors of SUMO activating enzyme” (Millennium Pharmaceuticals, Inc., priority 2014, dated 2020)

Target: recombinant human SAE enzyme (Homo sapiens (Human), UniProt Q9UBT2)
Experiment: SAE HTRF enzyme assay
Type: biochemical
Details: for Percent Inhibition: Concentration 0.111 μM; for IC50: class symbols A/B/C
Protocol: Example 215: SAE HTRF enzyme assay
The SAE enzymatic reaction totals 50 μl and contains 50 mM HEPES Hemisodium (pH 7.5), 0.05% BSA, 5 mM MgCl2, 0.5 μM ATP, 250 μM GSH, 0.01 μM Ubc9-GST, 0.125 μM Sumo-Flag and 0.11 nM recombinant human SAE enzyme. The enzymatic reaction mixture, with and without inhibitor, Is incubated at 24° C. for 105 min in a 384-well plate before termination with […] of Stop/Detection buffer (0.1M HEPES Hemisodium pH 7.5, 0.05% Tween20, 20 mM EDTA, 410 mM KF, 0.53 nM Europium-Cryptate labeled monoclonal anti-Flag M2 Antibody (CisBio International) and 8.125 μg/ml PHYCOLINK goat anti-GST allophycocyanin (XL-APC) antibody (Prozyme)). After incubation for 2 hours at 24° C., quantification of FRET is performed on the Pherostar™ (BMG Labtech). Percentage inhibition values at a single concentration or enzyme inhibition (IC50) values are determined from those curves. One skilled in the art will appreciate that the values generated either as percentage inhibition at a single concentration or IC50 values are subject to experimental variation.

Sequence of recombinant human SAE enzyme (Q9UBT2 whole entry): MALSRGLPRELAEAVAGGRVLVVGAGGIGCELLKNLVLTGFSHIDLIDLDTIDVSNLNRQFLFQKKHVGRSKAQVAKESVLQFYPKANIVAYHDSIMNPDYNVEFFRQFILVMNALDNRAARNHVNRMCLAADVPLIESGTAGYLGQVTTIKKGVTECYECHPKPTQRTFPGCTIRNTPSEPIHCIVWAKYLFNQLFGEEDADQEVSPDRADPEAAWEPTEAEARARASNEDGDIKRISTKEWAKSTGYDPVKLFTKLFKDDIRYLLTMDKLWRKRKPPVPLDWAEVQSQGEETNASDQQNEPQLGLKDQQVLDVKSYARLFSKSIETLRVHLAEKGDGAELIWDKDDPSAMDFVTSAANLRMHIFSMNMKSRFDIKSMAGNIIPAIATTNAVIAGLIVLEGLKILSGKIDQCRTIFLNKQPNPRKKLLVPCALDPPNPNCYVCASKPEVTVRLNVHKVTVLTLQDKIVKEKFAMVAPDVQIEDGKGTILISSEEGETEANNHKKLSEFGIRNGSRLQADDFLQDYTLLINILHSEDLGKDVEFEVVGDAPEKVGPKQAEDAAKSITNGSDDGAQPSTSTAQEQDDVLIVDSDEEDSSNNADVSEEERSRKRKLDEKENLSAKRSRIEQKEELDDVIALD
Sequence of recombinant human SAE enzyme (Q9UBE0 whole entry partner): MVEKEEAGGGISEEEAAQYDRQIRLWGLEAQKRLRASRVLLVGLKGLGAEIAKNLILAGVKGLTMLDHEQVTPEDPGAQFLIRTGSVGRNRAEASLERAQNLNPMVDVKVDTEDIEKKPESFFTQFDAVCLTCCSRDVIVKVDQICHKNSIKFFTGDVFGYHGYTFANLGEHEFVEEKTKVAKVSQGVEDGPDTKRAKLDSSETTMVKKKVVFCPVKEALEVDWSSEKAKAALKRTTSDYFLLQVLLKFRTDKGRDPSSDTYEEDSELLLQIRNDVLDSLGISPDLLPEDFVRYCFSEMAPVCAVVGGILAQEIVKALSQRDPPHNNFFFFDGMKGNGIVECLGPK

Structure (SMILES)	Percent Inhibition	IC50 [nM]
NS(=O)(=O)OCC1CC(Nc2ncncc2C(=O)c2cc(C(O)c3cc(Br)ccc3F)cs2)CC1O (mixture of isomers) [I-19, [(1R,2S,4R)-4-{[5-({4-[(R)-(5-bromo-2-fluorophenyl)(hydroxy)methyl]-2-thienyl}carbonyl)pyrimidin-4-yl]amino}-2-hydroxycyclopentyl]methyl sulfamate and [(1R,2S,4R)-4-{[5-({4-[(S)-(5-bromo-2-fluorophenyl)(hydroxy)methyl]-2-thienyl}carbonyl)pyrimidin-4-yl]amino}-2-hydroxycyclopentyl]methyl sulfamate]	100	< 10
NC(c1cccc(Br)c1)c1cc(C(=O)c2cncnc2NC2CC(O)C(COS(N)(=O)=O)C2)sc1Cl (mixture of isomers) [I-22, [(1R,2S,4R)-4-{[5-({4-[(R)-amino(3-bromophenyl)methyl]-5-chloro-2-thienyl}carbonyl)pyrimidin-4-yl]amino}-2-hydroxycyclopentyl]methyl sulfamate and [(1R,2S,4R)-4-{[5-({4-[(S)-amino(3-bromophenyl)methyl]-5-chloro-2-thienyl}carbonyl)pyrimidin-4-yl]amino}-2-hydroxycyclopentyl]methyl sulfamate]	99	< 10
NC(c1cccc(Cl)n1)c1cc(C(=O)c2cncnc2NC2CC(O)C(COS(N)(=O)=O)C2)sc1Cl (mixture of isomers) [I-25, [(1R,2S,4R)-4-{[5-({4-[(S)-amino(6-chloropyridin-2-yl)methyl]-5-chloro-2-thienyl}carbonyl)pyrimidin-4-yl]amino}-2-hydroxycyclopentyl]methyl sulfamate and [(1R,2S,4R)-4-{[5-({4-[(R)-amino(6-chloropyridin-2-yl)methyl]-5-chloro-2-thienyl}carbonyl)pyrimidin-4-yl]amino}-2-hydroxycyclopentyl]methyl sulfamate]	98	< 10
Cc1sc(C(=O)c2cncnc2N[C@@H]2C[C@H](COS(N)(=O)=O)[C@@H](O)C2)cc1[S@+]([O-])c1cccc(Cl)c1.Cc1sc(C(=O)c2cncnc2N[C@@H]2C[C@H](COS(N)(=O)=O)[C@@H](O)C2)cc1[S@@+]([O-])c1cccc(Cl)c1 (mixture of isomers) [I-28, [(1R,2S,4R)-4-{[5-({4-[(R)-(3-chlorophenyl)sulfinyl]-5-methyl-2-thienyl}carbonyl)pyrimidin-4-yl]amino}-2-hydroxycyclopentyl]methyl sulfamate and [(1R,2S,4R)-4-{[5-({4-[(S)-(3-chlorophenyl)sulfinyl]-5-methyl-2-thienyl}carbonyl)pyrimidin-4-yl]amino}-2-hydroxycyclopentyl]methyl sulfamate]	98	< 10
NS(=O)(=O)OCC1CC(Nc2ncncc2C(=O)c2cc(C(O)c3cccc(Cl)n3)cs2)CC1O (mixture of isomers) [I-29, [(1R,2S,4R)-4-({5-[{4-[(S)-(6-Chloropyridin-2-yl)(hydroxy)methyl]-2-thienyl}carbonyl)pyrimidin-4-yl]amino}-2-hydroxycyclopentyl]methyl sulfamate and [(1R,2S,4R)-4-{[5-({4-[(R)-(6-Chloropyridin-2-yl)(hydroxy)methyl]-2-thienyl}carbonyl)pyrimidin-4-yl]amino}-2-hydroxycyclopentyl]methyl sulfamate]	100	< 10
CC(O)(c1cccc(Cl)c1)c1coc(C(=O)c2cncnc2NC2CC(O)C(COS(N)(=O)=O)C2)c1 (mixture of isomers) [I-30, {(1R,2S,4R)-4-[(5-{4-[(1S)-1-(3-chlorophenyl)-1-hydroxyethyl]-2-furoyl}pyrimidin-4-yl)amino]-2-hydroxycyclopentyl}methyl sulfamate and {(1R,2S,4R)-4-[(5-{4-[(1R)-1-(3-chlorophenyl)-1-hydroxyethyl]-2-furoyl}pyrimidin-4-yl)amino]-2-hydroxycyclopentyl}methyl sulfamate]	98	< 10
NS(=O)(=O)OC[C@H]1C[C@@H](Nc2ncncc2C(=O)c2cc([C@@]3(c4ccccc4)CCCO3)cs2)C[C@@H]1O (mixture of isomers) [I-32, [(1R,2S,4R)-2-hydroxy-4-{[5-({4-[(2S)-2-phenyltetrahydrofuran-2-yl]-2-thienyl}carbonyl)pyrimidin-4-yl]amino}cyclopentyl]methyl sulfamate and [(1R,2S,4R)-2-hydroxy-4-{[5-({4-[(2R)-2-phenyltetrahydrofuran-2-yl]-2-thienyl}carbonyl)pyrimidin-4-yl]amino}cyclopentyl]methyl sulfamate]	98	< 10
N[C@H](c1cccc(Cl)c1)c1csc(C(=O)c2cncnc2N[C@@H]2C[C@H](COS(N)(=O)=O)[C@@H](O)C2)c1 (mixture of isomers) [I-36, [(1R,2S,4R)-4-{[5-({4-[(R)-amino(3-chlorophenyl)methyl]-2-thienyl}carbonyl)pyrimidin-4-yl]amino}-2-hydroxycyclopentyl]methyl sulfamate and [(1R,2S,4R)-4-{[5-({4-[(S)-amino(3-chlorophenyl)methyl]-2-thienyl}carbonyl)pyrimidin-4-yl]amino}-2-hydroxycyclopentyl]methyl sulfamate]	100	< 10
NS(=O)(=O)OC[C@H]1C[C@@H](Nc2ncncc2C(=O)c2cc([C@@]3(c4cccc(Cl)c4)CCCN3)cs2)C[C@@H]1O (mixture of isomers) [I-38, [(1R,2S,4R)-4-{[5-({4-[(2S)-2-(3-chlorophenyl)pyrrolidin-2-yl]-2-thienyl}carbonyl)pyrimidin-4-yl]amino}-2-hydroxycyclopentyl]methyl sulfamate and [(1R,2S,4R)-4-{[5-({4-[(2R)-2-(3-chlorophenyl)pyrrolidin-2-yl]-2-thienyl}carbonyl)pyrimidin-4-yl]amino}-2-hydroxycyclopentyl]methyl sulfamate]	101	< 10
NS(=O)(=O)OC[C@H]1C[C@@H](Nc2ncncc2C(=O)c2cc([C@H](O)c3cccc(Cl)c3F)c(Cl)s2)C[C@@H]1O (mixture of isomers) [I-40, [(1R,2S,4R)-4-{[5-({5-chloro-4-[(R)-(3-chloro-2-fluorophenyl)(hydroxy)methyl]-2-thienyl}carbonyl)pyrimidin-4-yl]amino}-2-hydroxycyclopentyl]methyl sulfamate and [(1R,2S,4R)-4-{[5-({5-chloro-4-[(S)-(3-chloro-2-fluorophenyl)(hydroxy)methyl]-2-thienyl}carbonyl)pyrimidin-4-yl]amino}-2-hydroxycyclopentyl]methyl sulfamate]	96	< 10
NS(=O)(=O)OC[C@H]1C[C@@H](Nc2ncncc2C(=O)c2cc(Cc3cccc(Cl)c3)c([C@@H]3CCCO3)s2)C[C@@H]1O (mixture of isomers) [I-41, [(1R,2S,4R)-4-{[5-({4-(3-chlorobenzyl)-5-[(2S)-tetrahydrofuran-2-yl]-2-thienyl}carbonyl)pyrimidin-4-yl]amino}-2-hydroxycyclopentyl]methyl sulfamate and [(1R,2S,4R)-4-{[5-({4-(3-chlorobenzyl)-5-[(2R)-tetrahydrofuran-2-yl]-2-thienyl}carbonyl)pyrimidin-4-yl]amino}-2-hydroxycyclopentyl]methyl sulfamate]	99	< 10
NS(=O)(=O)OC[C@H]1C[C@@H](Nc2ncncc2C(=O)c2cc([C@@H](O)c3cccc(Cl)c3)co2)C[C@@H]1O.NS(=O)(=O)OC[C@H]1C[C@@H](Nc2ncncc2C(=O)c2cc([C@H](O)c3cccc(Cl)c3)co2)C[C@@H]1O (mixture of isomers) [I-42, {(1R,2S,4R)-4-[(5-{4-[(R)-(3-chlorophenyl)(hydroxy)methyl]-2-furoyl}pyrimidin-4-yl)amino]-2-hydroxycyclopentyl}methyl sulfamate and {(1R,2S,4R)-4-[(5-{4-[(S)-(3-chlorophenyl)(hydroxy)methyl]-2-furoyl}pyrimidin-4-yl)amino]-2-hydroxycyclopentyl}methyl sulfamate]	98	< 10
CN[C@H](c1cccc(Cl)c1)c1csc(C(=O)c2cncnc2N[C@@H]2C[C@H](COS(N)(=O)=O)[C@@H](O)C2)c1 (mixture of isomers) [I-47, [(1R,2S,4R)-4-{[5-({4-[(R)-(3-chlorophenyl)(methylamino)methyl]-2-thienyl}carbonyl)pyrimidin-4-yl]amino}-2-hydroxycyclopentyl]methyl sulfamate and [(1R,2S,4R)-4-{[5-({4-[(S)-(3-chlorophenyl)(methylamino)methyl]-2-thienyl}carbonyl)pyrimidin-4-yl]amino}-2-hydroxycyclopentyl]methyl sulfamate]	97	< 10
NS(=O)(=O)OCC1CC(Nc2ncncc2C(=O)c2cc(C(O)(CCO)c3cccc(Cl)c3)c(Cl)s2)CC1O (mixture of isomers) [I-49, [(1R,2S,4R)-4-{[5-({5-Chloro-4-[(1S)-1-(3-chlorophenyl)-1,3-dihydroxypropyl]-2-thienyl}carbonyl)pyrimidin-4-yl]amino}-2-hydroxycyclopentyl]methyl sulfamate and [(1R,2S,4R)-4 {[5-({5-Chloro-4[(1R)-1-(3-chlorophenyl)-1,3-dihydroxypropyl]-2-thienyl}carbonyl)pyrimidin-4-yl]amino}-2-hydroxycyclopentyl]methyl sulfamate]	98	< 10
